The record followed here is ChEMBL document CHEMBL3608207, “Synthesis, characterization, evaluation and molecular dynamics studies of 5, 6-diphenyl-1,2,4-triazin-3(2H)-one derivatives bearing 5-substituted 1,3,4-oxadiazole as potential anti-inflammatory and analgesic agents” (Eur J Med Chem, 2015).

A short description of series [1]: Retardation factor of the compound. The format is physicochemical.
A short description of series [2]: Octanol/water partition coefficient, log P of the compound by shake flask method. It counts as physicochemical.
Series [3] can be described thus: In-vitro anti-inflammatory activity assessed as inhibition of denaturation of bovine serum albumin at equimolar dose relative to 10 mg indomethacin. It counts as functional.
The test system of series [4] is Mus musculus. Briefly: Analgesic activity in Swiss albino mouse assessed as reduction in formalin-induced paw licking by measuring time spent on licking during phase-2 at 10 mg/kg, po dosed 1 hr before formalin challenge and measured 30 mins after formalin injection. It counts as functional.
For series [5], the system named is Mus musculus. Briefly: Analgesic activity in Swiss albino mouse assessed as reduction in formalin-induced paw licking by measuring time spent on licking during phase-1 at 10 mg/kg, po dosed 1 hr before formalin challenge and measured 30 mins after formalin injection. It counts as functional.
The subject of series [6] is Rattus norvegicus. The series is described as follows: Anti-inflammatory activity in rat model of acute inflammation assessed as inhibition of carrageenan-induced paw oedema dosed at equimolar oral dose relative to 10 mg/kg, po indomethacin dosed 1 hr before carrageenan injection and measured 5 hrs after carrageenan injection relative to 10 mg/kg, po indomethacin. The format is functional. (Carrageenan injected into the paw causes an acute inflammation.)

The subject of series [7] is Rattus norvegicus. Briefly: Toxicity in healthy albino rat assessed as induction of mortality at 500 mg/kg, po measured after 14 days. It counts as organism-based. Conditions: in vivo, 336 h.
Series [8] relates to Rattus norvegicus. The series is described as follows: Anti-inflammatory activity in rat model of acute inflammation assessed as inhibition of carrageenan-induced paw oedema dosed at equimolar oral dose relative to 10 mg/kg, po indomethacin dosed 1 hr before carrageenan injection and measured 5 hrs after carrageenan injection. The format is functional.
For series [9], the system named is Rattus norvegicus. The series is described as follows: Toxicity in healthy albino rat assessed as induction of coma up to 500 mg/kg, po. The note with it: in vivo. It counts as organism-based.
In series [10] the test system is Rattus norvegicus. The series is described as follows: Toxicity in healthy albino rat assessed as induction of salivation up to 500 mg/kg, po. The note with it: in vivo. The format is organism-based.
Series [11] relates to Rattus norvegicus. The series is described as follows: Toxicity in healthy albino rat assessed as induction of lethargy up to 500 mg/kg, po. The note with it: in vivo. The format is organism-based.
Series [12] has as its system Rattus norvegicus. Briefly: Anti-inflammatory activity in rat model of acute inflammation assessed as inhibition of carrageenan-induced paw oedema dosed at equimolar oral dose relative to 10 mg/kg, po indomethacin dosed 1 hr before carrageenan injection and measured 2 hrs after carrageenan injection. It counts as functional.
Series [13] deals with Rattus norvegicus. The series is described as follows: Anti-inflammatory activity in rat model of acute inflammation assessed as inhibition of carrageenan-induced paw oedema dosed at equimolar oral dose relative to 10 mg/kg, po indomethacin dosed 1 hr before carrageenan injection and measured 3 hrs after carrageenan injection. It counts as functional.
Series [14] has as its system Rattus norvegicus. The series is described as follows: Toxicity in healthy albino rat assessed as induction of diarrhoea up to 500 mg/kg, po. Conditions: in vivo. It counts as organism-based.
The subject of series [15] is Rattus norvegicus. Briefly: Toxicity in healthy albino rat assessed as induction of changes in autonomic or behavioural responses up to 500 mg/kg, po. The format is organism-based. The note with it: in vivo.
The test system of series [16] is Rattus norvegicus. Briefly: Anti-inflammatory activity in rat model of acute inflammation assessed as inhibition of carrageenan-induced paw oedema dosed at equimolar oral dose relative to 10 mg/kg, po indomethacin dosed 1 hr before carrageenan injection and measured 6 hrs after carrageenan injection. It counts as functional.
Series [17] relates to Rattus norvegicus. The series is described as follows: Toxicity in healthy albino rat assessed as induction of sleep up to 500 mg/kg, po. The format is organism-based. Conditions: in vivo.
In series [18] the test system is Rattus norvegicus. The series is described as follows: Toxicity in healthy albino rat assessed as induction of tremors up to 500 mg/kg, po. The format is organism-based. Conditions: in vivo.
Series [19] has as its system Rattus norvegicus. The series is described as follows: Toxicity in healthy albino rat assessed as induction of convulsion up to 500 mg/kg, po. The format is organism-based. Conditions: in vivo.
For series [20], the system named is Rattus norvegicus. The series is described as follows: Anti-inflammatory activity in rat model of acute inflammation assessed as inhibition of carrageenan-induced paw oedema dosed at equimolar oral dose relative to 10 mg/kg, po indomethacin dosed 1 hr before carrageenan injection and measured 1 hr after carrageenan injection. The format is functional.
Series [21] relates to Rattus norvegicus. The series is described as follows: Anti-inflammatory activity in rat model of acute inflammation assessed as inhibition of carrageenan-induced paw oedema dosed at equimolar oral dose relative to 10 mg/kg, po indomethacin dosed 1 hr before carrageenan injection and measured 4 hrs after carrageenan injection. The format is functional.
Series [22] has as its system Rattus norvegicus. Briefly: Anti-inflammatory activity in rat assessed as inhibition of arachidonic acid-induced paw edema at 10 mg/kg, po dosed 30 mins before arachidonic acid injection and measured 1 hr after arachidonic acid injection. It counts as functional.

Usually logP stands for the decadic logarithm of the partition coefficient of the neutral form, usually between octanol and water. For orientation: inhibition means the relative decrease from the control value, in per cent. For the compound `O=c1nc(-c2ccccc2)c(-c2ccccc2)nn1Cc1nnc(-c2ccccc2)o1`, in series [1], the Rf stood at 0.4. Further, the logP in series [2] worked out at 3.54. Further, the inhibition in [3] turned out to be 50.3%.
On to `NNC(=O)Cn1nc(-c2ccccc2)c(-c2ccccc2)nc1=O`, for which the inhibition in [3] was found to be 38.3%.
Regarding `Oc1nnc(-c2ccccc2)c(-c2ccccc2)n1`, the inhibition in [3] is 30.7%.
By inhibition in vivo is commonly meant the drop in the measured response relative to a control, in per cent. Consider `CC(C)=CCN1CC[C@]2(C)c3cc(O)ccc3C[C@H]1[C@H]2C` [(+)-PENTAZOCINE], for which the values for the inhibition in vivo at 10 mg/kg with Mus musculus [4] and in the series with Mus musculus [5] were 90.2% and 88.9%, respectively.
Compound `O=c1nc(-c2ccccc2)c(-c2ccccc2)nn1Cc1nnc(-c2ccccc2[N+](=O)[O-])o1` returned a Rf in series [1] of 0.35. The “inhibition (INH)” value in the series on Rattus norvegicus [6] worked out at 65.92%; in the series with Rattus norvegicus [8], 41.29%; with Rattus norvegicus [12] it was 30.7%; with Rattus norvegicus [13], 36.39%; in the series with Rattus norvegicus [16], 39%; with Rattus norvegicus [20], 12.12%. Besides, in the series with Rattus norvegicus [21], the “inhibition (INH)” value is listed as 38.75%. For the same compound, the Activity result with Rattus norvegicus [7], in the series with Rattus norvegicus [9], in the series on Rattus norvegicus [10], in the series with Rattus norvegicus [11], in the series on Rattus norvegicus [14] and with Rattus norvegicus [15] was “Non-toxic” in each case. Further, the Activity entry in the series on Rattus norvegicus [17], in the series on Rattus norvegicus [18] and in the series on Rattus norvegicus [19] was “Non-toxic” each time. In series [2], this compound came in with a logP of 3.64. The inhibition in series [3] is 70.1%.
Compound `O=c1nc(-c2ccccc2)c(-c2ccccc2)nn1Cc1nnc(-c2cccc(Cl)c2)o1` displayed a Rf in series [1] of 0.45. Moreover, the logP in [2] came out at 3.82. Moreover, the inhibition in series [3] came to 64.4%.
The corresponding values for `COc1cccc(-c2nnc(Cn3nc(-c4ccccc4)c(-c4ccccc4)nc3=O)o2)c1` are 0.38, 3.47 and 62.7%.
The compound `Cc1ccccc1-c1nnc(Cn2nc(-c3ccccc3)c(-c3ccccc3)nc2=O)o1` showed a Rf in series [1] of 0.36. Besides, in [2], the lipophilicity (logP) was 3.81. The inhibition in series [3] worked out at 53.7%.
The corresponding values for `O=c1nc(-c2ccccc2)c(-c2ccccc2)nn1Cc1nnc(-c2ccncc2)o1` are 0.43, 3.67 and 47.9%.
The corresponding values for `Cc1ccc(-c2nnc(Cn3nc(-c4ccccc4)c(-c4ccccc4)nc3=O)o2)cc1` are 0.34, 3.73 and 50.3%.
In the case of `CC(c1cc2ccccc2s1)N(O)C(N)=O` (centres undefined) [ZILEUTON], the inhibition in vivo at 10 mg/kg with Rattus norvegicus [22] turned out to be 67.4%.
In series [1], `O=c1nc(-c2ccccc2)c(-c2ccccc2)nn1Cc1nnc(-c2ccc(Cl)cc2Cl)o1` registered a Rf of 0.51. Besides, the “inhibition (INH)” value with Rattus norvegicus [6] was 61.16%; with Rattus norvegicus [8] it was 38.31%; with Rattus norvegicus [12], 28.44%; in the series with Rattus norvegicus [13], 31.23%; in the series on Rattus norvegicus [16] it was 35.42%; in the series with Rattus norvegicus [20], 12.01%. Also, in the series with Rattus norvegicus [21], the “inhibition (INH)” value was found to be 34.8%. Also, the Activity entry in the series with Rattus norvegicus [7], in the series with Rattus norvegicus [9], with Rattus norvegicus [10], in the series with Rattus norvegicus [11], with Rattus norvegicus [14] and in the series with Rattus norvegicus [15] was “Non-toxic” throughout. Further, the Activity entry in the series on Rattus norvegicus [17], with Rattus norvegicus [18] and in the series on Rattus norvegicus [19] was “Non-toxic” in each case. The compound further had a logP in [2] of 4.45. Also, the inhibition in series [3] turned out to be 67.7%.
As to `N#Cc1cccc(-c2nnc(Cn3nc(-c4ccccc4)c(-c4ccccc4)nc3=O)o2)c1`, the Rf in [1] came to 0.45. Moreover, in series [2], the lipophilicity (logP) worked out at 3.74. Further, the inhibition in series [3] is 62.3%.
`CCOC(=O)Cn1nc(-c2ccccc2)c(-c2ccccc2)nc1=O`: the inhibition in [3] came out at 35.7%.
For `O=c1nc(-c2ccccc2)c(-c2ccccc2)nn1Cc1nnc(Oc2ccc(Cl)cc2Cl)o1`, in series [1], the Rf worked out at 0.47. Moreover, the “inhibition (INH)” value in the series with Rattus norvegicus [6] was found to be 75.25%; in the series with Rattus norvegicus [8], 47.14%; in the series on Rattus norvegicus [12], 34.87%; in the series on Rattus norvegicus [13] it was 42.02%; in the series with Rattus norvegicus [16] it was 44.89%; with Rattus norvegicus [20], 15.59%. For the same compound, the “inhibition (INH)” value in the series with Rattus norvegicus [21] came to 45.24%. The Activity entry with Rattus norvegicus [7], in the series with Rattus norvegicus [9], with Rattus norvegicus [10], in the series with Rattus norvegicus [11], in the series with Rattus norvegicus [14] and in the series with Rattus norvegicus [15] was “Non-toxic” each time. Besides, the Activity entry in the series on Rattus norvegicus [17], in the series with Rattus norvegicus [18] and in the series on Rattus norvegicus [19] was “Non-toxic” throughout. The compound further showed a log partition coefficient (logP) in series [2] of 4.4. Also, in [3], the inhibition was 72.7%.
